Like-named read-outs stand apart in the source and are kept apart here.
Assays:
[1] = test system: lipidic peroxidation of rat cerebral cortex homogenate; assay: In vitro lipidic peroxidation (Fenton reaction, MDA) in rat cerebral cortex membranes; assay type: biochemical; conditions: iron/ascorbate, read-out: Inhibition of lipidic peroxidation [IC50 (μM)]
Description: The test consists of inducing lipidic peroxidation by Fenton reactions in the presence of iron and ascorbate. The degree of lipidic peroxidation is determined by the concentration of malonaldehyde (MDA). The MDA produced by the lipidic peroxidation of unsaturated fatty acids is a good indicator of lipidic peroxidation (Esterbauer et al, 1990; Meth. Enzymol. 186: 407421). For this colorimetric test, the condensation of a molecule of MDA with two molecules of chromogenic reagent R (N-methyl-2-phenylindole) produces a stable chromophore the maximum absorbance wavelength of which is equal to […].
The membranes are prepared from the cortexes of male Sprague Dawley rats weighing 200 to 250 g. The animals are sacrificed by decapitation and the brains are immediately removed and rinsed in cold Tris HCl 20 mM pH 7.4. The cortexes, after dissection and removal of the white matter, are then ground with the Thomas potter, in Tris HCl buffer 20 mM pH 7.4 at 4° C. The homogenate obtained is centrifuged at low speed in order to eliminate the large debris (515 g for 15 minutes at 4° C.). The supernatant is then distributed into polycarbonate centrifugation tubes and centrifuged at 51500 g for 25 min at 4° C. The membrane pellets are kept at −80° C.
On the day of the experiment, the frozen membranes are resuspended at a concentration of 0.5 equivalent grams of cortex per 5 ml of Tris HCl buffer 20 mM pH 7.4 and homogeneized using a combitips. In 96-well “deep-well” 1 ml polypropylene plates with a conical base, 5 μl per well of the product to be tested or of solvent is mixed with 40 μl of rat cerebral cortex homogenate by centrifugation (800 rpm). The plates are covered with a self-adhesive aluminium sheet and incubated at 37° C. for 15 minutes under agitation. […]
The membranes and the supernatants are separated by filtration under vacuum on a 96-well plate with a multiscreen filtering base NA (Millipore, ref: MANANLY 50). The absorbance of the supernatants recovered in the 96-well plates is read using a photometer.

[2] = test system: L6 Myoblasts differentiated to myotubes (rat skeletal muscle cells); assay: Protection from necrosis induced by maitotoxin, L6 myoblasts differentiated to myotubes; assay type: cell-based; conditions: single product at 100 μM
Description: (§1) Human neuroblastomas SHSY5Y and rat glial cells C6 are seeded at 25 000 cells per well in 96-well plates in DMEM 10% FBS for 24 hours. The L6 rat myoblasts are seeded at 1000 cells per well in DMEM 10% FBS on 96-well microplates coated beforehand with gelatin 0.5% PBS. After culture for 3 days the medium is removed and replaced with a differentiation medium (DMEM+10 μg/ml of insulin+100 μg/ml of transferrin). 50 μl of product A plus 50 μl of solvent or 50 μl of product B are placed in the wells. After incubation for 1 hour at 37° C. under an atmosphere of 5% CO2, 10 μl of maitotoxin is added in order to obtain a final concentration of 0.1 nM to 1 nM (according to the cell type). After incubation for 3 hours at 37° C. under an atmosphere of 5% CO2, the cell viability is determined by adding 10 μl of tetrazolium salts (wst-1, Roche, ref: 1644807). The tetrazolium salts are cleaved into formazan molecules by mitochondrial dehydrogenases. The quantity of formazan formed is directly correlated to the number of metabolically active cells in the culture. Measurement of the absorbance of the formazan is carried out using a multiwell photometer at a wavelength of 420 nm against a reference wavelength of 620 nm.
The theoretical effect was obtained by multiplying the percentage of dead cells in the presence of product A by the percentage of dead cells in the presence of product B (Table 3). […]

rat glial cells C6 = assay: Protection from necrosis induced by maitotoxin, C6 (wst-1 viability); assay type: cell-based
Description: as §1
(§2) The theoretical effect was obtained by multiplying the percentage of dead cells in the presence of product A by the percentage of dead cells in the presence of product B (Table 3). The percentage protection against cell death induced by MTX being the percentage of cells kept alive in the presence of the product or products.
In the light of the previous results, the combination of Example 1 with product A and product B at a rate of 100 μM of each of the products is carried out on human neuroblastomas (SHSY5Y; (Table 5A) and on glial cells with 25 μM of product A and 50 μM of product B (C6; Table 5B) on a larger number of cases.

[3] = test system: 8-isoPG1F2α level in rat glial cells C6; assay: In situ isoprostane level (8-isoPG1F2α) in C6 cells treated with maitotoxin; assay type: cell-based; conditions: 3 h, read-out: Inhibition of the isoprostane count in situ (C6) [IC50 (μM)]
Description: 8-isoPG1F2α is part of a family of compounds the first synthesis stage of which (peroxidation of arachidonic acid) is carried out in a non-enzymatic manner in the presence of free radicals (Morrow and coll, 1990). Measurement of the 8-iso PGF2α level is considered as a reliable marker of the oxidation stress.
The rat glial cells C6 were seeded at 25 000 cells per well in 96-well plates in DMEM 10% FBS. The next day, 100 μl of product A was placed in the wells. After incubation for 1 hour at 37° C. under an atmosphere of 5% CO2, 10 μl containing maitotoxin is added in order to obtain a final concentration in the well of 1 nM. After incubation for 3 hours, the supernatants are removed and frozen at −20° C. The 8-isoPG1F2α level is measured using a specific EIA dosage kit (Cayman chemical, ref: 516351).

[4] = test system: human neuroblastomas SHSY5Y; assay: Protection from necrosis induced by maitotoxin, SHSY5Y (wst-1 viability); assay type: cell-based; conditions: for Protection from necrosis induced by MTX: SHSY5Y, n=2, 0.1 nM maitotoxin; for Protection from necrosis induced by MTX on SHSY5Y: n = 8, single product at 100 μM
Description: as §1, §2
In a first series of experiments, the concentration of product A in Example 1 is fixed (100 μM), product B is added at concentrations varying from zero to 100 μM (Table 4A). In a second series of experiments, product B of Example 1 is fixed at 100 μM, product A is added at concentrations varying from zero to 100 μM (Table 4B).

human calpain I = molecular target: T1, human calpain I (Homo sapiens, UniProt P07384); assay: Effects on human calpain I (acellular, Suc-Leu-Tyr-AMC fluorescence); assay type: biochemical; conditions: enzyme purified from human erythrocytes; 1 h at 25°C; read-out: Inhibition human calpain I, acellular [IC50 (nM)]
T1 construct: enzyme purified from human erythrocytes; purchased Calbiochem 208713; host or cells: human erythrocytes (native tissue source)
T1 sequence (P07384 1-714): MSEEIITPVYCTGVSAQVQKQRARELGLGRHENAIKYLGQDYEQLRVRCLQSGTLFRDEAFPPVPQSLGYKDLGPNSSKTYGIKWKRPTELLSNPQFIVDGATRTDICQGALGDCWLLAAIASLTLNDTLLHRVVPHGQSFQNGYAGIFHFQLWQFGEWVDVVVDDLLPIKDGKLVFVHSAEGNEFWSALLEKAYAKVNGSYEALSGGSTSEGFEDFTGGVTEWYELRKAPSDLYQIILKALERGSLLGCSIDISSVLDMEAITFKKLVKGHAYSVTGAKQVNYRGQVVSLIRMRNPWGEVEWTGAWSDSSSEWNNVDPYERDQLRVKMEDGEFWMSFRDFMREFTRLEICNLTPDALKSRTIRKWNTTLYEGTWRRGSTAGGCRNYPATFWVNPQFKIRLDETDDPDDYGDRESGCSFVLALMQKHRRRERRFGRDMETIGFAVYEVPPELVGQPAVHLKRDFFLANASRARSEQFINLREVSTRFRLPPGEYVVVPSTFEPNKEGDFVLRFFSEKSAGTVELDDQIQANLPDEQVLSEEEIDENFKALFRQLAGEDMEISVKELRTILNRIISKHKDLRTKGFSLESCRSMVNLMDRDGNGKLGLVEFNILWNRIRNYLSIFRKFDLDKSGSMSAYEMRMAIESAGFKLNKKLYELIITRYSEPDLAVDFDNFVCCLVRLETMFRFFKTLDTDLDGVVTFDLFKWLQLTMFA
T1 sequence (P04632 1-268 partner): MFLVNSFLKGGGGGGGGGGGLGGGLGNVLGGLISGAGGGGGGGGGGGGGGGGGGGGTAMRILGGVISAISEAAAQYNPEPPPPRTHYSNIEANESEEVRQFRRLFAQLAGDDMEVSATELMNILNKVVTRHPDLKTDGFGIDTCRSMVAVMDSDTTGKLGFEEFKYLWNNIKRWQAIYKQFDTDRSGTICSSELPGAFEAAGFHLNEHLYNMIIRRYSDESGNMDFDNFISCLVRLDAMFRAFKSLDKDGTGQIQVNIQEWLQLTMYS
Description: The test consists of measuring the activity of the enzyme (enzyme purified from human erythrocytes) which is incubated in a buffer in the presence of a peptide substrate coupled with a fluorochrome (amino-methylcourmarin, AMC) and calcium. The enzyme activated by the calcium, proteolyses the substrate and releases the AMC fragment. The AMC released fluoresces at 460 nm under excitation at 380 nm. The activity of the enzyme is therefore proportional to the quantity of fluorescence i.e. of free AMC fragment. The fluorescence (380/460 nm) is measured using a multi-well fluorimeter (Victor 2, Wallac).
Assay is carried out in 96-well microplates with transparent bottoms and black walls in which 10 μl per well of substance to be tested in DMSO 10%, 45 μl of reaction mixture containing the human calpain I at 2.2 U/ml (Calbiochem, ref: 208713), the Suc Leu Tyr-AMC substrate (Bachem, ref: I-1355) at 1.1 mM in a buffer (Tris-HCl 110 mM; NaCl 110 mM; EDTA 2.2 mM; EGTA 2.2 mM; mercaptoethanol 1.1 mM) are distributed. The reaction is initiated by adding 45 μl of CaCl2 22mM. To determine the background noise, control wells without calcium are added to the plate (10 μL DMSO 10%+45 μL of buffer with the enzyme and the susbtrate +45 μL H2O). In order to determine the total activity of the enzyme control wells containing no product are added to the plate (10 μL DMSO 10%+45 μL of buffer with the enzyme and the substrate +45 μL of CaCl2 22 mM ). Each concentration of the products (0.1 nM to 10 μM) is tested in duplicate. The plates are shaken and incubation takes place for one hour at 25° C. in darkness. The fluorescence is read at 380/460 nm using the Victor.

[5] = single product at 50 μM, n = 3 for Example 2, else n = 1
[6] = single product at 100 μM, n = 1

Question: `COc1ccc2c(c1)Nc1ccccc1S2` [EXAMPLE 2 A, 2-methoxy-10H-phenothiazine] was tested. Which IC50 [1] did it give?
Answer: The IC50 was 0.19 µM.

Question: What about the “Protection from necrosis induced by MTX on L6 Myoblasts differentiated to myotubes” value [2] of the same molecule?
Answer: Its value is 10.94%.

Question: What about the “Protection from necrosis induced by MTX on C6” value (from here on “Protection … on C6”) (rat glial cells C6; [5]) of the same molecule?
Answer: Its value is 6.56 ± 1.6%.

Question: And the “Protection … on C6” value (rat glial cells C6; single product at 50 μM, n = 3 for Example 2, else n = 1, listed as 2-methoxy-10H-phenothiazine)?
Answer: Its value is “inactive”.

Question: And the “Protection … on C6” value (rat glial cells C6; [6])?
Answer: Its value is 10.45%.

Question: And the IC50 ([3]; Rattus norvegicus, Glial cell)?
Answer: Its IC50 is 0.4 µM.

Question: Which results are given for `CC(C)(C)c1cc(C(=O)O)cc(C(C)(C)C)c1O` [EXAMPLE 1 A, 3-5-di-tert-butyl-4-hydroxybenzoic acid]?
Answer: IC50 [1]: 3.7 µM; Protection from necrosis induced by MTX ([4]; single compound at 12.5 μM): 5.18 ± 1.81%; Protection from necrosis induced by MTX ([4]; single compound at 25 μM): 7.45 ± 1.65%; Protection from necrosis induced by MTX ([4]; single compound at 50 μM): 8.87 ± 0.34%; Protection from necrosis induced by MTX ([4]; single compound at 100 μM): 8.68 ± 0.3%; Protection from necrosis induced by MTX on SHSY5Y [4]: 19.48 ± 5.20%; Protection from necrosis induced by MTX on SHSY5Y ([4]; listed as 3,5-di-tert-butyl-4-hydroxybenzoic acid): less than 20%; Protection from necrosis induced by MTX on C6 (rat glial cells C6; single product at 25 μM): 21.23%; Protection from necrosis induced by MTX on C6 (rat glial cells C6; single product at 25 μM, listed as 3-5-di-tert-butyl-4-hydroxybenzoic acid): ~20%; Protection from necrosis induced by MTX on C6 (rat glial cells C6; single product at 25 μM, listed as EXAMPLE 4 A): 16.17%; Protection from necrosis induced by MTX on C6 (rat glial cells C6; [5]): 12.51%; Protection from necrosis induced by MTX on C6 (rat glial cells C6; [6]): 30.84%; IC50 ([3]; n = 3, maitotoxin 1 nM): 101 µM

Question: How did the “Protection from necrosis induced by MTX on L6 Myoblasts differentiated to myotubes” value [2] turn out when `CCCC[C@@H](C=O)NC(=O)[C@H](CC(C)C)NC(=O)OCc1ccccc1` [EXAMPLE 3 B] was run?
Answer: The value was 5.09%.

Question: And the IC50 (human calpain I)?
Answer: The IC50 was 2.8 nM.

Question: What about the “Protection … on C6” value (rat glial cells C6; [5]) of the same molecule?
Answer: The value was 13.03%.

Question: And the “Protection … on C6” value (rat glial cells C6; [6])?
Answer: Its value is 0.84%.

Reference: US20070265208A1, “Association of calpain inhibitors and reactive oxygen species trapping agents” (priority 2000, published 2007)
